Source: US20130136809A1, “7-HYRDROXYFRULLANOLIDE ITS ANALOGS FOR PREVENTION CONTROL AND TREATMENT OF METABOLIC DISORDERS” (LAILA NUTRACEUTICALS, priority 2009, published 2013)

Key:
Type in all cases: cell-based, mouse
PPARγ = test: Immunoblot of PPARγ expression in 3T3-L1 adipocytes; conditions: 1 ug/ml; normalized with actin
Experimental: (§1) Experimental protocol: Mouse pre-adipocyte 3T3-L1 cells are maintained in Dulbecco's Modified Eagles Medium (DMEM) supplemented with 2 mM glutamine, 4.5 g/L glucose and 10% fetal bovine serum. Equal number of cells was plated in each well of 24-well culture plates. Cells were pre-treated separately with 1 μg/mL 7-hydroxyfrullanolide for 2 h and followed by addition of differentiation medium containing 500 nM insulin, 1.0 μM dexamethasone, and 0.5 mM isobutylmethylxanthine (IBMX) for 48 h. Thereafter, cells were further incubated with post differentiation medium (DMEM containing 100 nM insulin) in presence or absence of 7-HF. […] Protein content was measured in Bradford method by using Coomassie blue dye and cell lysates were stored in aliquots at −80° C. until further use. The modulation of adipocyte differentiation markers such as Peroxisome proliferator-activated receptor gamma (PPARγ), CD36, adipocyte fatty acid binding protein (aP2); and intracellular lipid droplet surface associated protein, perilipin expression were evaluated by immunoblot assay.
(§2) Inhibition of protein expression of biomarker molecules adipocytes in presence or absence of 7-hydroxyfrullanolide (7-HF) was evaluated in immunoblot assay. […] Band intensities were calculated densitometrically and normalized with expression of actin in respective samples.

[1] = system: 3T3-L1 pre-adipocyte cells; test: Pro-lipolytic activity in differentiated adipocytes (free glycerol release); conditions: 5 μg/mL; increase in glycerol release
Experimental: The lipolytic activity was assessed in mature adipocytes as per the procedure of Chemicon International, USA, by measuring free glycerol secreted into the culture medium. One hundred thousand 3T3-L1 […] pre-adipocyte cells in Dulbecco's Modified Eagles Medium (DMEM) containing 10% Fetal Bovine Serum (FBS) were taken into each well of a 24-well plate and incubated for 48 h at 37° C. and 5% CO2. The differentiation of pre-adipocyte cells was initiated in a differentiation medium containing 10 µg/ml insulin, 1.0 µM dexamethasone, and 0.5 mM isobutylmethylxanthine (IBMX). The cells were differentiated for 5 days and then the culture medium was removed. The monolayer was washed twice with wash solution (Hank's balanced salt solution), and then 250 µL of incubation solution (Hank's balanced salt solution plus 2% bovine serum albumin) was added to the wells in triplicate in presence or absence of 7-hydroxyfrullanolide or its analogs or the extracts containing 7-HF, and the cells were further incubated for 16 h. To measure lipolysis, 200 μL of free glycerol assay reagent was added to 25 µL of culture supernatants and controls containing glycerol standard. The samples and the controls were incubated for 15 min, and the absorbance was read at 540 nm. A standard curve constructed from the glycerol was used to calculate the concentration of free glycerol in the culture supernatants. The percentage increase in glycerol concentration in the sample solutions compared to the control containing the known concentrations of glycerol corresponds to the percentage acceleration of lipolysis by test compound.

aP2 = test: Immunoblot of aP2 expression in 3T3-L1 adipocytes; conditions: 1 ug/ml; normalized with actin
Experimental: as §1, §2

[2] = system: 3T3-L1 pre-adipocyte cells; test: Inhibition of lipid accumulation in differentiated adipocytes (Oil Red O); conditions: Homo sapiens, 3T3-L1 adipocytes
Experimental: One hundred thousand 3T3-L1 […] pre-adipocyte cells in Dulbecco's Modified Eagles Medium (DMEM) containing 10% Fetal Bovine Serum (FBS) were taken into each well of a 24-well plate and incubated for 48 h at 37° C. and 5% CO2. The differentiation of pre-adipocyte cells was initiated in a differentiation medium containing 10 μg/ml insulin, 1.0 μM dexamethasone, and 0.5 mM isobutylmethylxanthine (IBMX) for 48 h. After this the medium was replaced by DMEM containing 10 ug/ml insulin and incubated for 3 days. Then the differentiating cells were treated with […] of 7-hydroxyfrullanolide (1) or different natural analogs (structure numbers 3 to 11) or semi-synthetic analogs (structure numbers 12 to 25) of 7-HF. The cells were maintained in the medium for another 3-5 days. The cells incubated with 0.1% DMSO were considered as the vehicle control. After the incubation period, cells were washed with phosphate buffered saline (PBS) and fixed with 10% buffered formalin for 1 h at room temperature. One small aliquot of cell suspension was separated for cell counting in hemocytometer chamber. Fixed cells were stained with Oil Red O solution to measure the cellular neutral lipid accumulation. Briefly, cells were washed with PBS, fixed with 10% buffered formalin and stained with Oil Red O solution (0.5 g in 100 ml isopropanol) for […]. After removing the staining solution, the dye retained in the cells will be eluted into isopropanol and OD measured at 550 nm. The inhibition of fat accumulation in the treated cells was compared with the mock treated differentiated adipocytes. The treated and control cells were also analyzed and compared for inhibition of lipid accumulation visually under microscope and recorded digitally in suitable image capture system. The anti-adipogenic activity by 7-HF is depicted in Figure I and the percentage inhibition of lipid accumulation shown by 7-HF and its natural and semi-synthetic analogs is summarized in Table-1.

CD36 = test: Immunoblot of CD36 expression in high glucose induced J774 macrophage cells; conditions: 1 μg/ml; 600 mg/dL glucose, 5 days
Experimental: Experimental protocol: This was evaluated in glucose induced J774, mouse macrophage cells. Briefly, the cells were cultured in DMEM with 2 mM Glutamine, 100 U/mL penicillin, […] streptomycin and 10% fetal bovine serum (Hyclone, Logan, Utah). Equal number of cells was seeded into 35 mm petri dishes (Corning, USA) one day before the experiment. The culture media was replaced with fresh, glucose free DMEM supplemented with 10% fetal bovine serum. 7-HF was diluted at […] and all cultures were pre-incubated for 2 hours at 5% CO2 at 37° C., and then incubated with 600 mg/dL of glucose for 5 days. Representative photomicrographs showing inhibition of lipid accumulation by 7-HF in high glucose induced macrophage cells of an in vitro model of atherosclerosis are shown in Figure IV. The control culture was supplemented with 100 mg/dL glucose. […] Protein concentration was measured by Bradford method.
Inhibition of CD36 protein expression in high glucose induced J774 macrophage cells in presence or absence of 7-HF was evaluated in immunoblot assay. […] Finally, the specific immuno-reactive bands were developed with West-pico chemiluminescent substrate (Pierce Biotechnology, IL, USA), and the immunoblot images were recorded in a Kodak Image Station (Kodak, USA). Band intensities were calculated densitometrically and normalized with expression of actin in respective samples.

**Q.** Which results are given for `C=C1C(=O)O[C@H]2C3=C(C)CCC[C@]3(C)CC[C@@]12O` [7-HF (1), 7-hydroxyfrullanolide]?
**A.** PPARγ protein expression (PPARγ): down-regulation; % acceleration of lipolysis [1]: 47.8%; aP2 protein expression (aP2): down-regulation; inhibition at 1 µg/mL ([2]; 1.0 μg/mL): 52.5%; inhibition at 2.5 µg/mL ([2]; 2.5 μg/mL): 63.5%; CD36 levels in high glucose induced macrophage cells (CD36): reduced back towards their base values
